# Data from paper PMC10254233, “Synthesis and In Vitro Biological Evaluation of p-Carborane-Based Di-tert-butylphenol Analogs” (Molecules, 2023).
# Key:
# [1] = test system: HT-29 colorectal carcinoma; assay: Cell viability, MTT assay, HT-29; assay type: cell-based, human; settings: 72 h, mean ± SD
# Method: Five human cell lines (A375 melanoma, A549 lung adenocarcinoma, HCT116 and HT29 colorectal carcinoma, MDA-MB-231 triple-negative breast adenocarcinoma) were used to study the antitumor effects of the di-tert-butylphenols and their respective carborane analogs. All selected cell lines were derived from inflammation-associated tumors.
# After the incubation period, the supernatant was discarded from the wells, and the cells were washed two times with 200 µL of PBS. Next, MTT solution at a final concentration of 0.5 mg/mL was added and incubated at 37 °C until purple formazan crystals were formed (30 min to one hour). After incubation, the dye was discarded. In order to dissolve the formed formazan crystals DMSO was added, and the absorbance was measured at λmax = 540 nm, with the reference/background wavelength of 670 nm. All results are expressed as a percentage of the control value which was arbitrary set to 100%. After 72 h treatment, cells were washed with 200 µL of PBS and fixed with 4% paraformaldehyde (PFA) for 15 min at room temperature (RT). Next, cells were stained with 1% CV solution. After 20 min, cells were washed in tap water and dried on air. Dye was dissolved in 33% acetic acid and the absorbance was measured at λmax = 540 nm, with the reference/background wavelength of 670 nm. Results were expressed as a percentage of the control value which was arbitrary set to 100%.
# 1. General methods, materials, and procedures
# 1.1.1. Reagents and cells
# Reagents and cells were obtained from following manufacturers: Capricorn Scientific GmbH (Hessen, Germany) – Culture medium RPMI-1640, Dulbecco's Modified Eagle Medium (DMEM), and fetal bovine serum (FBS). Serva (Heidelberg, Germany) – Paraformaldehyde (PFA). Sigma (St. Louis, MO, USA) – Ethylenediaminetetraacetic acid (EDTA), Dimethyl sulfoxide (DMSO), chloroquine, CV, Triton X-100, RNase, PI, PBS, 3-MA, CFSE, and fluorescent mounting medium. AppliChem (MO, USA) –MTT. Thermo Fisher Scientific (Waltham, MA, USA) – DHR. R&D Systems (Minneapolis, MN, USA) – ApoStat. BD (Pharmingen, San Diego, SAD) – Annexin V-FITC (AnnV). Biological Industries (Cromwell, CT, USA) – Penicillin Streptomycin solution. American Type Culture Collection (ATCC, Manassas, Virginia, USA) – Human lung carcinoma (A549), human breast adenocarcinoma (MDA-MB-231), human colorectal ade-nocarcinoma (HT-29), human colorectal carcinoma (HCT116) and human melanoma (A375).
# Cell lines (A375, HCT116, HT-29 and MDA-MB-231) were cultivated in HEPES-buffered RPMI-1640 medium while A549 cell line was cultivated in Dulbecco's Modified Eagle Medium (DMEM) which were previously supplemented with 10% heat-inactivated FBS, penicillin (100 units/mL), and streptomycin (100 μg/mL). All cells were kept at 37 °C in a humidified atmosphere with 5% CO2. For viability determi-nation cells were seeded at following densities in 96-well plates: 4 x 10^3 cells/well (A375, HT-29 and MDA-MB-231), 5 x 10^3 cells/well (HCT116), and 3 x 10^3 cells/well (A549). […]
# Afterwards, cells were washed with phosphate-buffered saline (PBS) and stained with AnnV (15 μg/mL) and PI (15 μg/mL). After 15 min incubation at room temperature (RT) protected from light the cells were resuspended in AnnV-binding buffer and analysed using flow cytom-etry. HCT116 cells were incubated with pan-caspase inhibitor Apostat for 30 min at 37 °C to determine whether detected apoptosis was mediated by caspase activation. Afterwards, cells were washed with PBS and analyzed using flow cytometry. HCT116 cells were stained with 1 µg/mL of AO solution for 15 min at 37 °C to detect the presence of autophagic cell death. Afterwards cells were washed with PBS, resuspended and analyzed by flow cytometry (CyFlow® Space Partec using the PartecFloMax® software
# ovine COX-1 = target: T1, ovine COX-1 (Ovis aries, UniProt P05979); assay: COX Fluorescent Inhibitor Screening Assay, COX-1; assay type: biochemical; settings: in duplicate
# T1 construct: purchased Cayman Chemical Company
# T1 sequence (P05979 25-600): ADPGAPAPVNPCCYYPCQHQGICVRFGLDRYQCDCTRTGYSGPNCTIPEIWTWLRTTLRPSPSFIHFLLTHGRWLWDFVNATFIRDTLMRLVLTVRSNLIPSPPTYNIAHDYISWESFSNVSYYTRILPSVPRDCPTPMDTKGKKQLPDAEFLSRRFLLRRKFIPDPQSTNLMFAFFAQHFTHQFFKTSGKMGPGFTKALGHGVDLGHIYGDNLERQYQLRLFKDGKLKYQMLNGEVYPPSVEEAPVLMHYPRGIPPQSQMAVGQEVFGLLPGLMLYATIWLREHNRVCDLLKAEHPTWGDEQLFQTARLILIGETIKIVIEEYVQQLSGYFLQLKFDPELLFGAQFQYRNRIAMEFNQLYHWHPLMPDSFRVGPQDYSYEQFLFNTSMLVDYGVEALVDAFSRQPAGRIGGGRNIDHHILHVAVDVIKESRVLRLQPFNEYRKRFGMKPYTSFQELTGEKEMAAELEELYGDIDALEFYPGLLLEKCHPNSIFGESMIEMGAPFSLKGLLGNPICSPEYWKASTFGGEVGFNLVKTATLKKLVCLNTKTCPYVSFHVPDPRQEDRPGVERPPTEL
# Method: COX inhibition activity against ovine COX-1 and human COX-2 was determined using the fluorescence-based COX assay COX Fluorescent Inhibitor Screening Assay Kit (Cayman Chemical Company, Ann Arbor, MI, USA) according to the manufacturer’s instructions as previously reported by us. All compounds were screened at a concentration of 100 µM in duplicate.
IC50 [1],Substance,% Inhibition at 100 µM COX-1 (ovine COX-1)
120 ± 9.7 µM,"(3E)-1-Hydroxy-12-(methylene-[1′-methoxypyrrolidine-2′-one])-1,12-dicarba-closo-dodecaborane(12) [Compound E-5110-Cb]",n.i. (n.i. = no inhibition (%inhibition below 5%))
81.8 ± 6.1 µM,"(3E)-1-Hydroxy-12-(methylene-[2′-ethylisothiazolidine-1′,1′-dioxide])-1,12-dicarba-closo-dodecaborane(12) [Compound S-2474-Cb]",n.i. (n.i. = no inhibition (%inhibition below 5%))
139 ± 5.4 µM,"(3E)-1-Hydroxy-12-(methylene-[dihydrofurane-2′(3H)-one])-1,12-dicarba-closo-dodecaborane(12) [KME-4-Cb]",26%

Substance,IC50 [1],% Inhibition at 100 µM COX-1 (ovine COX-1)
"1-Hydroxy-12-(thiophen-2′-carbonyl)-1,12-dicarba-closo-dodecaborane(12) [Compound R-830-Cb]",65.6 ± 5.3 µM,18%
